Experimental data taken from patent US20230355626A1, “INHIBITORS OF HUMAN IMMUNODEFICIENCY VIRUS REPLICATION” (VIIV HEALTHCARE UK (NO.5) LIMITED, priority 2020, published 2023).

What was measured:
recombinant NL4-3 virus = experiment: HIV cell culture assay (antiviral activity, luciferase readout in infected MT-2 cells); assay type: cell-based; settings: Human immunodeficiency virus 1, NL43, MT2
Protocol: HIV cell culture assay—MT-2 cells, 293T cells and the proviral DNA clone of NL4-3 virus were obtained from the NIH AIDS Research and Reference Reagent Program. MT-2 cells were propagated in RPMI 1640 media supplemented with 10% heat inactivated fetal bovine serum (FBS), 100 μg/ml penicillin G and up to 100 units/mL streptomycin. The 293T cells were propagated in DMEM media supplemented with 10% heat inactivated FBS, 100 μg/mL penicillin G and 100 μg/mL streptomycin. A recombinant NL4-3 proviral clone, in which a section of the nef gene was replaced with the Renilla luciferase gene, was used to make the reference virus used in these studies. The recombinant virus was prepared through transfection of the recombinant NL4-3 proviral clone into 293T cells using Transit-293 Transfection Reagent from Mirus Bio LLC (Madison, WI). Supernatant was harvested after 2-3 days and the amount of virus present was titered in MT-2 cells using luciferase enzyme activity as a marker by measuring luciferase enzyme activity. Luciferase was quantitated using the EnduRen Live Cell Substrate from Promega (Madison, WI). Antiviral activities of compounds toward the recombinant virus were quantified by measuring luciferase activity in MT-2 cells infected for 4-5 days with the recombinant virus in the presence of serial dilutions of the compound.
The 50% effective concentration (EC50) was calculated by using the exponential form of the median effect equation where (Fa)=1/[1+(ED50/drug conc.)m] (Johnson VA, Byington RT. Infectivity Assay. In Techniques in HIV Research. ed. Aldovini A, Walker BD. 71-76. New York: Stockton Press.1990). Curve fitting and analysis were performed with ActivityBase XE Runner software version 9.1.0.4 using model 203 (ID Business Solutions, LTD, Guildford, UK).

[1] = Compound cytotoxicity, XTT-based colorimetric assay; assay type: cell-based; settings: human; uninfected MT2 cells, day 4, XTT assay
Protocol: Compound cytotoxicity and the corresponding CC50 values were determined using the same protocol as described in the antiviral assay except that uninfected cells were used. Cytotoxicity was assessed on day 4 in uninfected MT2 cells by using an XTT (2,3-bis[2-Methoxy-4-nitro-5-sulfophenyl]-2H-tetrazolium-5-carboxyanilide inner salt)-based colorimetric assay (Sigma-Aldrich, St Louis, Mo).

Structure (SMILES)	EC50 (recombinant NL4-3 virus) [nM]	CC50 at 4 day [1] [nM]
Cn1nccc1CCOc1ccc2c(=O)n(-c3ccc(Cl)c4c(NS(C)(=O)=O)nn(C)c34)c([C@H](Cc3cc(F)cc(F)c3)NC(=O)Cn3nc(C(F)F)c4c3C(F)(F)[C@@H]3C[C@H]43)nc2n1 (atropisomer, axis not shown; (P)) [Example 14, N-((R)-1-((3P,3P)-3-(4-chloro-1-methyl-3-(methylsulfonamido)-1H-indazol-7-yl)-7-(2-(1-methyl-1H-pyrazol-5-yl)ethoxy)-4-oxo-3,4-dihydropyrido[2,3-d]pyrimidin-2-yl)-2-(3,5-difluorophenyl)ethyl)-2-((3bS,4aR)-3-(difluoromethyl)-5,5-difluoro-3b,4,4a,5-tetrahydro-1H-cyclopropa[3,4]cyclopenta[1,2-c]pyrazol-1-yl)acetamide]	0.061	> 500
COC1(CCOc2ccc3c(=O)n(-c4ccc(Cl)c5c(NS(C)(=O)=O)nn(C)c45)c([C@H](Cc4cc(F)cc(F)c4)NC(=O)Cn4nc(C(F)F)c5c4C(F)(F)[C@@H]4C[C@H]54)nc3n2)CCC1 (atropisomer, axis not shown; (P)) [Example 16, N-((S)-1-((3P,3P)-3-(4-chloro-1-methyl-3-(methylsulfonamido)-1H-indazol-7-yl)-7-(2-(1-methoxycyclobutyl)ethoxy)-4-oxo-3,4-dihydropyrido[2,3-d]pyrimidin-2-yl)-2-(3,5-difluorophenyl)ethyl)-2-((3bS,4aR)-3-(difluoromethyl)-5,5-difluoro-3b,4,4a,5-tetrahydro-1H-cyclopropa[3,4]cyclopenta[1,2-c]pyrazol-1-yl)acetamide]	0.03	> 100
Cn1nc(NS(C)(=O)=O)c2c(Cl)ccc(-n3c([C@H](Cc4cc(F)cc(F)c4)NC(=O)Cn4nc(C(F)F)c5c4C(F)(F)[C@@H]4C[C@H]54)nc4nc(OCC5CC5(F)F)ccc4c3=O)c21 (stereo partly drawn) [Example 33, N-((1S)-1-((3P)-3-(4-chloro-1-methyl-3-(methylsulfonamido)-1H-indazol-7-yl)-7-((2,2-difluorocyclopropyl)methoxy)-4-oxo-3,4-dihydropyrido[2,3-d]pyrimidin-2-yl)-2-(3,5-difluorophenyl)ethyl)-2-((3bS,4aR)-3-(difluoromethyl)-5,5-difluoro-3b,4,4a,5-tetrahydro-1H-cyclopropa[3,4]cyclopenta[1,2-c]pyrazol-1-yl)acetamide]	0.037	> 100
Cn1nc(NS(C)(=O)=O)c2c(Cl)ccc(-n3c([C@H](Cc4cc(F)cc(F)c4)NC(=O)Cn4nc(C(F)F)c5c4C(F)(F)[C@@H]4C[C@H]54)nc4nc(OCC5CC(F)(F)C5)ccc4c3=O)c21 (atropisomer, axis not shown; (P)) [Example 31, N-((S)-1-((3P)-3-(4-chloro-1-methyl-3-(methylsulfonamido)-1H-indazol-7-yl)-7-((3,3-difluorocyclobutyl)methoxy)-4-oxo-3,4-dihydropyrido[2,3-d]pyrimidin-2-yl)-2-(3,5-difluorophenyl)ethyl)-2-((3bS,4aR)-3-(difluoromethyl)-5,5-difluoro-3b,4,4a,5-tetrahydro-1H-cyclopropa[3,4]cyclopenta[1,2-c]pyrazol-1-yl)acetamide]	0.035	> 100
Cn1nc(NS(C)(=O)=O)c2c(Cl)ccc(-n3c([C@H](Cc4cc(F)cc(F)c4)NC(=O)Cn4nc(C(F)F)c5c4C(F)(F)[C@@H]4C[C@H]54)nc4nc(OC5CC=CC5)ccc4c3=O)c21 (atropisomer, axis not shown; (P)) [Example 1, N-((S)-1-((3P)-3-(4-chloro-1-methyl-3-(methylsulfonamido)-1H-indazol-7-yl)-7-(cyclopent-3-en-1-yloxy)-4-oxo-3,4-dihydropyrido[2,3-d]pyrimidin-2-yl)-2-(3,5-difluorophenyl)ethyl)-2-((3bS,4aR)-3-(difluoromethyl)-5,5-difluoro-3b,4,4a,5-tetrahydro-1H-cyclopropa[3,4]cyclopenta[1,2-c]pyrazol-1-yl)acetamide]	0.024	> 100
Cn1nc(NS(C)(=O)=O)c2c(Cl)ccc(-n3c([C@H](Cc4cc(F)cc(F)c4)NC(=O)Cn4nc(C(F)F)c5c4C(F)(F)[C@@H]4C[C@H]54)nc4nc(OCc5ccn(CC(F)(F)F)n5)ccc4c3=O)c21 (atropisomer, axis not shown; (P)) [Example 24, N-((S)-1-((3P)-3-(4-chloro-1-methyl-3-(methylsulfonamido)-1H-indazol-7-yl)-4-oxo-7-((1-(2,2,2-trifluoroethyl)-1H-pyrazol-3-yl)methoxy)-3,4-dihydropyrido[2,3-d]pyrimidin-2-yl)-2-(3,5-difluorophenyl)ethyl)-2-((3bS,4aR)-3-(difluoromethyl)-5,5-difluoro-3b,4,4a,5-tetrahydro-1H-cyclopropa[3,4]cyclopenta[1,2-c]pyrazol-1-yl)acetamide]	0.057	> 100
CN(CCCOc1ccc2c(=O)n(-c3ccc(Cl)c4c(NS(C)(=O)=O)nn(C)c34)c([C@H](Cc3cc(F)cc(F)c3)NC(=O)Cn3nc(C(F)F)c4c3C(F)(F)[C@@H]3C[C@H]43)nc2n1)CC(F)(F)F (atropisomer, axis not shown; (P)) [Example 11, N-((S)-1-((3P)-3-(4-chloro-1-methyl-3-(methylsulfonamido)-1H-indazol-7-yl)-7-(3-(methyl(2,2,2-trifluoroethyl)amino)propoxy)-4-oxo-3,4-dihydropyrido[2,3-d]pyrimidin-2-yl)-2-(3,5-difluorophenyl)ethyl)-2-((3bS,4aR)-3-(difluoromethyl)-5,5-difluoro-3b,4,4a,5-tetrahydro-1H-cyclopropa[3,4]cyclopenta[1,2-c]pyrazol-1-yl)acetamide]	0.027	> 100
Cn1nc(NS(C)(=O)=O)c2c(Cl)ccc(-n3c([C@H](Cc4cc(F)cc(F)c4)NC(=O)Cn4nc(C(F)F)c5c4C(F)(F)[C@@H]4C[C@H]54)nc4nc(OCCC(C)(C)C(F)(F)F)ccc4c3=O)c21 (atropisomer, axis not shown; (P)) [Example 4, N-((S)-1-((3P)-3-(4-chloro-1-methyl-3-(methylsulfonamido)-1H-indazol-7-yl)-4-oxo-7-(4,4,4-trifluoro-3,3-dimethylbutoxy)-3,4-dihydropyrido[2,3-d]pyrimidin-2-yl)-2-(3,5-difluorophenyl)ethyl)-2-((3bS,4aR)-3-(difluoromethyl)-5,5-difluoro-3b,4,4a,5-tetrahydro-1H-cyclopropa[3,4]cyclopenta[1,2-c]pyrazol-1-yl)acetamide]	0.078	> 200
Cn1nc(NS(C)(=O)=O)c2c(Cl)ccc(-n3c([C@H](Cc4cc(F)cc(F)c4)NC(=O)Cn4nc(C(F)F)c5c4C(F)(F)[C@@H]4C[C@H]54)nc4nc(OCc5cccc(C(F)(F)F)n5)ccc4c3=O)c21 (atropisomer, axis not shown; (P)) [Example 22, N-((S)-1-((3P)-3-(4-chloro-1-methyl-3-(methylsulfonamido)-1H-indazol-7-yl)-4-oxo-7-((6-(trifluoromethyl)pyridin-2-yl)methoxy)-3,4-dihydropyrido[2,3-d]pyrimidin-2-yl)-2-(3,5-difluorophenyl)ethyl)-2-((3bS,4aR)-3-(difluoromethyl)-5,5-difluoro-3b,4,4a,5-tetrahydro-1H-cyclopropa[3,4]cyclopenta[1,2-c]pyrazol-1-yl)acetamide]	0.055	> 100
Cn1nc(NS(C)(=O)=O)c2c(Cl)ccc(-n3c([C@H](Cc4cc(F)cc(F)c4)NC(=O)Cn4nc(C(F)F)c5c4C(F)(F)[C@@H]4C[C@H]54)nc4nc(OCCOC(F)F)ccc4c3=O)c21 (atropisomer, axis not shown; (P)) [Example 29, N-((S)-1-((3P)-3-(4-chloro-1-methyl-3-(methylsulfonamido)-1H-indazol-7-yl)-7-(2-(difluoromethoxy)ethoxy)-4-oxo-3,4-dihydropyrido[2,3-d]pyrimidin-2-yl)-2-(3,5-difluorophenyl)ethyl)-2-((3bS,4aR)-3-(difluoromethyl)-5,5-difluoro-3b,4,4a,5-tetrahydro-1H-cyclopropa[3,4]cyclopenta[1,2-c]pyrazol-1-yl)acetamide]	0.033	> 100
